According to PMC9416111, “Synthesis and Biological Activity of Unsymmetrical Monoterpenylhetaryl Disulfides” (Molecules, 2022):
Converted amounts (≈) assume the structure as drawn.

Legend:
[1] = tested on: S. aureus MRSA clinical isolate; assay: Antibacterial MIC, broth microdilution (EUCAST); type: cell-based, Staphylococcus aureus; details: for MIC: Staphylococcus aureus, MRSA, 24 h, Mueller-Hinton broth
Experimental: (§1) Minimum inhibitory concentrations (MICs) of compounds was determined by the broth microdilution assay in 96-well plates (Eppendorf, Hamburg, Germany) according to the EUCAST rules for antimicrobial susceptibility testing in full Mueller-Hinton broth (MH). The concentrations of compounds to be tested ranged from 1 to 2048 µg/mL. The MIC was determined as the lowest concentration of an antibiotic for which no visible bacterial growth could be observed after 24 h of incubation.

[2] = tested on: S. aureus ATCC 29213 (MSSA); assay: Antibacterial MIC, broth microdilution (EUCAST); type: cell-based, Staphylococcus aureus; details: for MIC: Staphylococcus aureus
Experimental: as §1

P. aeruginosa ATCC 27853 = assay: Antibacterial MIC, broth microdilution (EUCAST); type: cell-based, Pseudomonas aeruginosa; details: for MIC: Pseudomonas aeruginosa, ATCC27853, 24 h, Mueller-Hinton broth
Experimental: as §1

in vitro = details: dog
[3] = tested on: Candida albicans 703 clinical isolate; assay: Antifungal MIC, broth microdilution (CLSI M27-A3); details: for MIC: Candida albicans, 24 h, read-out: MIC C. albicans 703 Clinical Isolate
[4] = tested on: influenza virus A/Puerto Rico/8/34 (H1N1); assay: Antiviral cell protection assay in MDCK cells; type: cell-based; details: H1N1, MDCK, 72 h
[5] = Cytotoxicity, MTT on EBL cells; details: bovine, EBL cells (embryonic bovine lung)
Experimental: (§3) Cytotoxicity of compounds was determined using the microtetrazolium test (MTT) on EBL cells. The cells were cultured in DMEM—Dulbecco’s Modified Eagle’s Medium (Sigma Aldrich, St. Louis, MO, USA) supplemented with 10% FBS, 2 mM L-glutamine, 100 µg/mL penicillin and 100 µg/mL streptomycin. Cells were seeded in 96-well plates with the density of 3000 cells per well and left overnight to allow for the attachment. Cells were next cultured at 37 °C and 5% CO2 in the presence of compounds of interest at various concentrations from 1.25 to 160 µg/mL. After 24 h of cultivation the cells were subjected to MTT-assay. The formazan was solubilized by DMSO and the optical density was measured on Tecan Infinite 200Pro at 570 nm. The concentration required to inhibit cellular dehydrogenase activity by 50% (CC50 value) was calculated by using GraphPad Prism 6.0 software (GraphPad software, San Diego, CA, USA).

[6] = tested on: EBL cells (embryonic bovine lung); assay: Cytotoxicity, MTT on EBL cells
Experimental: as §3

[7] = tested on: red blood cells from laboratory mice; assay: Membrane-protective activity: H2O2-induced hemolysis of erythrocytes; type: cell-based; details: 1 μM, 1–5 h
Experimental: The membrane-protective properties of the compounds were evaluated in the model of oxidative hemolysis of erythrocytes at a concentration of 1 μM in order to avoid the effect of hemolytic activity.
(§2) To evaluate the erythrotoxicity, antioxidant and membrane-protective activity of the compounds, we used 0.5% (v/v) suspension of red blood cells from laboratory mice in phosphate-buffered saline (PBS, pH 7.4). The test substances were previously dissolved in ethanol. Erythrotoxicity (hemolytic activity) was evaluated by the degree of hemolysis of red blood cells 1–5 h after the introduction of solutions of the compounds. Membrane-protective and antioxidant activity was determined by the degree of inhibition of H2O2-induced hemolysis. For this purpose, 30 min after the erythrocyte suspension was added to the solutions of the test compounds, hemolysis was initiated with a solution of hydrogen peroxide (0.006%). Then, the reaction mixture was incubated in a thermostatic shaker Biosan ES-20 with slow stirring at 37 °C for 5 h. An aliquot was taken from the incubation medium every hour, centrifuged for 5 min (1600× g), and the degree of hemolysis was determined by the hemoglobin content in the supernatant on a ThermoSpectromic Genesys 20 spectrophotometer (Thermo Fisher Scientific, Waltham, MA, USA) at 524 nm. The percentage of hemolysis was calculated in relation to the complete hemolysis of the sample. Each experiment was designed with 4–8 replicates. Statistical data processing and charting were performed using the Microsoft Office Excel 2007 software package (Microsoft, Redmond, WA, USA). The data represent the mean ± SE.
Figure 4 Effect of unsymmetrical disulfides and Trolox (T) at a concentration of 1 μM on the level of H2O2-induced hemolysis of erythrocytes after 1–5 h of incubation.

[8] = tested on: red blood cells from laboratory mice; assay: Erythrotoxicity (hemolytic activity); type: cell-based; details: 100 μM, 1, 3 and 5 h of incubation
Experimental: No significant hemolytic activity was detected at a concentration of 1 μM (Figure 3B).
as §2
Figure 3 Hemolytic activity of unsymmetrical disulfides at the concentration of 100 μM (A) and 1 μM (B) after 1, 3 and 5 h of incubation.

SMILES	MIC [1] [µg/mL]	MIC ([2]; 24 h, Mueller-Hinton broth) [µg/mL]	MIC (P. aeruginosa ATCC 27853) [µg/mL]	CC50 (in vitro) [µM]	MIC [3] [µg/mL]	IC50 [4] [µM]	melting point	CC50 at 24 h [5] [µg/mL]	cytotoxicity on EBL cells, in words [6]	membrane-protective activity, in words [7]	hemolytic activity (erythrotoxicity), in words [8]	activity against P. aeruginosa ATCC 27853, in words (P. aeruginosa ATCC 27853)	antibacterial activity against MRSA, in words [1]	antibacterial activity against MSSA, in words [2]	MIC S. aureus ATCC 29213 (MSSA) ([2]; 24 h, Mueller-Hinton broth) [µg/mL]	antifungal activity against Candida albicans 703, in words [3]
NCC[C@H](O)C(=O)N[C@@H]1C[C@H](N)[C@@H](O[C@H]2O[C@H](CN)[C@@H](O)[C@H](O)[C@H]2O)[C@H](O)[C@H]1O[C@H]1O[C@H](CO)[C@@H](O)[C@H](N)[C@H]1O [Amikacin, reference compound]	4 (≈ 6.83 µM)	4 (≈ 6.83 µM)	4 (≈ 6.83 µM)													
COC(=O)c1cccnc1SS[C@H]1C[C@H](C)CC[C@H]1C(C)C [Compound 1c, Methyl 2-(((1S,2S,5R)-2-isopropyl-5-methylcyclohexyl)disulfanyl)pyridine-3-carboxylate]	32 (≈ 94.2 µM)	32 (≈ 94.2 µM)	32 (≈ 94.2 µM)	31 ± 2	512 (≈ 1510 µM)	12 ± 2	96 °C	18.3 (≈ 53.9 µM)								
CC(C)[C@@H]1CC[C@@H](C)C[C@@H]1SSc1ncccc1C(=O)O [Compound 1d, 2-(((1S,2S,5R)-2-isopropyl-5-methylcyclohexyl)disulfanyl)nicotinic acid]	64 (≈ 197 µM)	32 (≈ 98.3 µM)	1020 (≈ 3150 µM)	38 ± 3	64 (≈ 197 µM)	> 34	160 to 161 °C (dec.)	47.8 (≈ 147 µM)								
CC1(C)[C@H]2CC[C@@H](CSSc3nc4ccccc4s3)[C@@H]1C2 [Compound 2a, 2-((((1S,2R,5S)-6,6-dimethylbicyclo [3.1.1]heptan-2-yl)methyl)disulfaneyl)benzo[d]thiazole]	128 (≈ 381 µM)	128 (≈ 381 µM)	64 (≈ 191 µM)	99 ± 5	1020 (≈ 3050 µM)	13 ± 3		104 (≈ 311 µM)	least toxicity	most active	Low hemolytic activity	repressed the growth				
Cc1cc(C)nc(SSC[C@@H]2CC[C@H]3C[C@@H]2C3(C)C)n1 [Compound 2b, 2-((((1S,2R,5S)-6,6-dimethylbicyclo[3.1.1]heptan-2-yl)methyl)disulfanyl)-4,6-dimethylpyrimidine]	64 (≈ 207 µM)	16 (≈ 51.9 µM)	32 (≈ 104 µM)	35 ± 3	> 1020	13 ± 2		13.6 (≈ 44.1 µM)		most active		repressed the growth				
COC(=O)c1cccnc1SSC[C@@H]1CC[C@H]2C[C@@H]1C2(C)C [Compound 2c, Methyl 2-((((1S,2R,5S)-6,6-dimethylbicyclo[3.1.1]heptan-2-yl)methyl)disulfaneyl)pyridine-3-carboxylate]	64 (≈ 190 µM)	> 1020	1020 (≈ 3030 µM)	104 ± 8	1020 (≈ 3030 µM)	19 ± 3		123 (≈ 363 µM)	least toxicity	most active			showing activity	inactive		
CC1(C)[C@H]2CC[C@@H](CSSc3ncccc3C(=O)O)[C@@H]1C2 [Compound 2d, 2-((((1S,2R,5S)-6,6-dimethylbicyclo[3.1.1]heptan-2-yl)methyl)disulfanyl)nicotinic acid]	512 (≈ 1580 µM)	16 (≈ 49.5 µM)	1020 (≈ 3170 µM)	60 ± 4	128 (≈ 396 µM)	5 ± 1		18.1 (≈ 56 µM)							32 (≈ 98.9 µM)	
CC1(C)[C@H]2C[C@H](SSc3nc4ccccc4s3)[C@@H](CO)[C@@H]1C2 [Compound 3a, ((1S,2R,3S,5R)-3-(benzo[d]thiazol-2-yldisulfanyl)-6,6-dimethylbicyclo[3.1.1]heptan-2-yl)methanol]	32 (≈ 91 µM)	32 (≈ 91 µM)	64 (≈ 182 µM)	30 ± 3	1020 (≈ 2910 µM)	9 ± 3		7.1 (≈ 20.2 µM)				repressed the growth				
Cc1cc(C)nc(SS[C@H]2C[C@H]3C[C@@H]([C@@H]2CO)C3(C)C)n1 [Compound 3b, ((1S,2R,3S,5R)-3-((4,6-dimethylpyrimidin-2-yl)disulfanyl)-6,6-dimethylbicyclo[3.1.1]heptan-2-yl)methanol]	32 (≈ 98.6 µM)	32 (≈ 98.6 µM)	1020 (≈ 3160 µM)	83 ± 4	512 (≈ 1580 µM)	16 ± 3		8.2 (≈ 25.3 µM)		most active						
CC1(C)[C@H]2C[C@H](SSc3ncccc3C(=O)O)[C@@H](CO)[C@@H]1C2 [Compound 3d, 2-(((1S,2R,3S,5R)-2-(hydroxymethyl)-6,6-dimethylbicyclo[3.1.1]heptan-3-yl)disulfanyl)nicotinic acid]	1020 (≈ 3020 µM)	512 (≈ 1510 µM)	1020 (≈ 3020 µM)	285 ± 14	32 (≈ 94.3 µM)	132 ± 16	99 °C	118 (≈ 347 µM)	least toxicity		Low hemolytic activity					active against yeast
CC1(C)[C@H]2C[C@H](O)[C@@H](CSSc3nc4ccccc4s3)[C@@H]1C2 [Compound 4a, (1S,2S,3S,5R)-2-((benzo[d]thiazol-2-yldisulfanyl)methyl)-6,6-dimethylbicyclo[3.1.1]heptan-3-ol]	> 1020	256 (≈ 728 µM)	1020 (≈ 2910 µM)	68 ± 6	> 1020	> 31				most active						
Cc1cc(C)nc(SSC[C@@H]2[C@@H](O)C[C@H]3C[C@@H]2C3(C)C)n1 [Compound 4b, (1S,2S,3S,5R)-2-(((4,6-dimethylpyrimidin-2-yl)disulfanyl)methyl)-6,6-dimethylbicyclo[3.1.1]heptan-3-ol]	> 1020	> 1020	> 1020	34 ± 2	> 1020	12 ± 3				most active						
CC1(C)[C@H]2C[C@H](O)[C@@H](CSSc3ncccc3C(=O)O)[C@@H]1C2 [Compound 4d, 2-((((1S,2S,3S,5R)-3-hydroxy-6,6-dimethylbicyclo[3.1.1]heptan-2-yl)methyl)disulfanyl)nicotinic acid]	64 (≈ 189 µM)	512 (≈ 1510 µM)	1020 (≈ 3020 µM)	178 ± 11	16 (≈ 47.1 µM)	> 97		11.1 (≈ 32.8 µM)		most active						active against yeast
OC(Cn1cncn1)(Cn1cncn1)c1ccc(F)cc1F [Fluconazole, reference compound]					16 (≈ 52.2 µM)											
CC(N)C12CC3CC(CC(C3)C1)C2 (stereo not drawn) [Rimantadine, reference compound]				367 ± 28		57 ± 8										
